{"source": "patent US10975116B2", "about": "“Methods of treating and preventing gastrointestinal motility disorders using aminosterols” (Enterin, Inc., priority 2013, dated 2021)", "key": {"[1]": {"test_system": "embryonal rhabdomyosarcoma", "assay": "Oral squalamine in sarcoma with dose finding by GI response, single subject", "type": "in vivo, human", "protocol": "A person was seen because of the recurrence of an embryonal rhabdomyosarcoma. They noticed a mass in their left groin. […] The mass was surgically excised. The patient was then treated with a cocktail of chemotherapeutic agents. Several months later the mass was seen to recur in the left groin. The mass was again excised. Several months later, a tumor was gain noted in the groin, with a large mass present in the left lung.\nAt 300 mg daily, a clear effect was noted, that being mild nausea, 2 hours after dosing, followed by a bowel movement later in the day."}, "[2]": {"test_system": "intrinsic primary afferent neurons (IPANs) of the colon", "assay": "Patch-clamp of IPANs of the colon, squalamine applied to lumen, intact epithelium", "type": "cell-based, mouse", "conditions": "30 μM, brief puff onto lumen/epithelium", "text": "In this experiment the outer adventitial layer of the mouse colon is peeled away exposing the IPANs. Individual IPANs within the myenteric plexus of the wall of the colon are patched using a patch-clamp apparatus. These cells represent the major neuronal population that communicate sensory data from the gut. They synapse with the various nerve networks within the gut that influence muscle and secretory activity, as well as connecting with vagal nerve endings. Administration of squalamine at 30 μM to the lumen (applied via a 50 ms “puff” of solution) leads to a very sustained (10 min) burst of electrical activity (FIG. 3)."}, "GLP-1": {"test_system": "GLP-1", "assay": "GLP-1 release into the blood stream after oral squalamine and lipid/carbohydrate meal (ELISA)", "type": "in vivo, human", "protocol": "Enteroendocrine cells, which contain entreric hormones, are known to respond to a variety of stimuli they contact in the intestinal lumen, and release hormones into the submucosa and subsequently into the bloodstream. In particular, GLP-1, the product of the L-cell, is known to have motility effects on the small intestine that resemble those observed after oral administration of squalamine. In this example, a lipid/carbohydrate meal was administered which is known to provoke the release of GLP-1 into the bloodstream. The GLP-1 response of the GI tract to the meal was compared in the presence or absence of squalamine, with blood levels of GLP-1 measured using an ELISA based immunoassay.\n• 1. Subject (BMI: […], no medical illness) was fasted overnight • 2. IV catheter 18 gauge implanted in R […] fossa • 3. Blood samples drawn at 9:30 A, 11 A, 11:30 A, 12:30 P, 1:30 P, 2 P, 2:30, 3, 3:30, 4:30, 5:30 • 4. Empty capsule and water at 10:30 A • 5. Lipid/carbohydrate meal (2 slices of white bread, each with 5.5 gms butter) at 2 P • 6. Blood samples: 2 ml into Becton-Dickenson Protease-inhibited Biomarker tubes; 3 ml into standard red top blood collection tubes. • 7. All samples were immediately spun at 3000 rpm×15 and serum or plasma aliquotted into 1.5 ml eppendorfs and then stored at −80° C. Squalamine Response • 1. Subject rested 3 days and re-evaluated 4 days after the Control response • 2. Fasted overnight • 3. IV catheter implanted • 4. Samples drawn at 10, 11, 11:30, 12:30, 1:30, 2:30, 3, 3:30, 4:30, 5:30 • 5. Squalamine capsule, 200 mg at 10:30 A • 6. Bread and butter, 2 P • 7. Blood samples collected and processed as in the Control study\nGLP-1 analyses (Total immunoreactive GLP-1): A Millipore ELISA kit was used (Cat #EZGLP1T-36K)."}, "[3]": {"test_system": "Parkinson's-like syndrome", "assay": "Oral squalamine in Parkinson's-like syndrome without GI disorders, single subject", "type": "in vivo, human", "text": "The individual was a person. They were a psychiatrist specializing in addiction. Movement disorder began. Original diagnosis was multiple sclerosis. Presenting symptoms were depression and difficulty in controlling the action of sitting in chair. They would “plop” onto a sit without braking the movement. […] Treatment with L-DOPA caused some correction of the sitting difficulty, leading to the presumptive diagnosis of Parkinson's disease. Therapy continued with increasing doses of Sinemet, followed by addition of ropinirole. Deterioration continued (despite an L-DOPA dose exceeding 10-11 pills/day), ropinirole (5×2 mg and 4×1 mg, daily) and amantadine was added. They were on Wellbutryn for depression. There had been no history of GI disorders, and bowel function was said to be normal.\nThe individual lived at home with a spouse and 2 children. They had to be driven to work. Walking was unsteady. Their speech was nearly incomprehensible. Face was mask-like. No obvious tremors. Walking was hesitant. Subject had fallen (or tripped) several times previously and used a cane."}, "Parkinson's disease": {"test_system": "Parkinson's disease", "assay": "Oral squalamine in Parkinson's disease with constipation, single subject", "type": "in vivo, human", "protocol": "A person, in otherwise good health, presented with Parkinson's disease of about 5 yrs duration. They were severely constipated and suffered from frequent episodes of cramping. These GI symptoms were similar to that described in Parkinson's and could not be alleviated medically or through dietary adjustment. Their medications included 5 L-DOPA/DDC caps/day and 1-2 Requip before bedtime. Their neurological status at this time was as follows, as determined about 1 hour after an L-DOPA dosing, a time point when they appear to be repleted with dopamine: • Slow walking with shuffling . . . need to squat intermittently • Articulation poor . . . difficult to understand their speech . . . halting • Use of utensils while eating involved slow, awkward movements • Face seemed a bit mask like; unconsciously made chewing movements • Cognitive function (memory, wit) was less than observed 3 months prior • Balance was unsteady • Mood was depressed • Swallowing noted to be difficult at times • Chewing food was slow • Handwriting was small\nBegan oral dosing with 200 mg capsule of squalamine on Day 1. Capsule was taken in the AM before breakfast, along with L-DOPA. […] 200 mg cap on day 2 provoked a watery diarrhea at 2 hrs after dosing, but discharge subsided by day 3 dosing. On day 13, subsequent dosing was maintained at 200 mg every other day, with some minor degree of nausea. No watery discharge. At about Day 30 the subject was switched to 100 mg every other day, and remained on this regimen for about 9.5 months."}}, "note": "“Also recorded” adds a separate entry of the source."}
{"substance": "squalamine", "values": [{"measurement": "GI response", "setting": "[1]; 100 mg capsules for several days", "result": "without any noticeable GI symptoms"}, {"measurement": "GI response", "setting": "[1]; 200 mg daily", "result": "without any GI response"}, {"measurement": "GI response", "setting": "[1]; 300 mg daily", "result": "mild nausea"}, {"measurement": "mild nausea, time after dosing", "setting": "[1]; 300 mg daily", "result": 2, "unit": "h"}, {"measurement": "tumor status", "setting": "[1]; 2 months post surgery, dosing continued", "result": "no evidence of pulmonary tumors nor evidence of recurrence of any soft tissue tumor in the groin"}, {"measurement": "finding in surgically removed lung tumor", "setting": "[1]; 3 weeks after initiation of dosing", "result": "massive internal hemorrhage due to blood vessel damage"}, {"measurement": "duration of burst of electrical activity / action potentials", "setting": "[2]", "result": 10, "unit": "min"}, {"measurement": "Squalamine Response: Clinical", "setting": "GLP-1; 200 mg capsule at 10:30 A, light headedness 11 A-12:15, nausea 1:45, diarrhea 2 P, 2:20, 2:36, 3:15", "result": "Episodes of light headedness; also recorded: Episode of mild nausea; also recorded: Passage of watery diarrhea"}, {"measurement": "effect on the release of GLP-1 from the small intestine", "setting": "GLP-1; 200 mg oral versus empty capsule, same subject", "result": "No significant effect"}, {"measurement": "GLP-1 blood level", "setting": "GLP-1; blood sample at 1:30, 200 mg capsule at 10:30 A, meal at 2 P", "result": 9, "unit": "pM"}, {"measurement": "GLP-1 blood level", "setting": "GLP-1; blood sample at 2:30, 200 mg capsule at 10:30 A, meal at 2 P", "result": 8, "unit": "pM"}, {"measurement": "GLP-1 blood level", "setting": "GLP-1; blood sample at 3:00, 200 mg capsule at 10:30 A, meal at 2 P", "result": 8, "unit": "pM"}, {"measurement": "GLP-1 blood level", "setting": "GLP-1; blood sample at 3:30, 200 mg capsule at 10:30 A, meal at 2 P", "result": 6, "unit": "pM"}, {"measurement": "GLP-1 blood level", "setting": "GLP-1; blood sample at 4:30, 200 mg capsule at 10:30 A, meal at 2 P", "result": 5, "unit": "pM"}, {"measurement": "GLP-1 blood level", "setting": "GLP-1; blood sample at 5:30, 200 mg capsule at 10:30 A, meal at 2 P", "result": 3, "unit": "pM"}, {"measurement": "GLP-1 blood level", "setting": "GLP-1; blood sample at 10 (before 200 mg capsule at 10:30 A), total immunoreactive GLP-1", "result": 6, "unit": "pM"}, {"measurement": "GLP-1 blood level", "setting": "GLP-1; blood sample at 11:30, 200 mg capsule at 10:30 A, meal at 2 P", "result": 4, "unit": "pM"}, {"measurement": "GLP-1 blood level", "setting": "GLP-1; blood sample at 11, 200 mg capsule at 10:30 A, meal at 2 P", "result": 5, "unit": "pM"}, {"measurement": "GLP-1 blood level", "setting": "GLP-1; blood sample at 12:30, 200 mg capsule at 10:30 A, meal at 2 P", "result": 10, "unit": "pM"}, {"measurement": "Observations", "setting": "[3]; Day 1, 100 mg cap", "result": "No obvious GI response. Continued"}, {"measurement": "Observations", "setting": "[3]; Day 21, 100 mg every other day, then began 200 mg every other day", "result": "articulation had become noticeably better; also recorded: improving and their energy level was increasing"}, {"measurement": "Observations", "setting": "[3]; Month 3, subject ran out of squalamine 2 weeks prior (cessation)", "result": "worst constipation they had ever remembered.”; also recorded: that he “was not feeling as good”"}, {"measurement": "Observations", "setting": "[3]; Month 5, 100 mg every other day raised to 200 mg every day at month 5.5", "result": "mg every day at month 5.5. No GI; also recorded: colleagues noted improvement. Took; also recorded: several falls which they attributed"}, {"measurement": "Observations", "setting": "[3]; Month 6, 200 mg every day", "result": "Individual could compensate being pulled; also recorded: told me that they felt their balance had improved; also recorded: Still had difficulty initiating; also recorded: No tremor; also recorded: Voice was of low; also recorded: volume. Face was still mask-like; also recorded: Once moving subject walked without; also recorded: Medication dosing had not changed"}, {"measurement": "watery diarrhea, time after dosing", "setting": "Parkinson's disease; 200 mg cap on day 2", "result": 2, "unit": "h"}, {"measurement": "GI response to first dose", "setting": "Parkinson's disease; 200 mg capsule Day 1, AM before breakfast, with L-DOPA", "result": "No nausea experienced nor watery discharge; also recorded: Passed several moist stools"}, {"measurement": "Observations", "setting": "Parkinson's disease; 3 Weeks, 200 mg, from day 13 every other day", "result": "Mood seems to have improved; also recorded: Some shaking even after L-DOPA; also recorded: Bowels improved considerably; also recorded: Walking more comfortably, but still uneven; also recorded: Subject feels breathing is easier; also recorded: Articulation much improved"}, {"measurement": "resolution of constipation", "setting": "Parkinson's disease; oral squalamine 200 mg regimen", "result": "Constipation resolved within several weeks"}]}
